Reference: US8961837B2, “Photosensitive resin composition for color filter and color filter using same” (Cheil Industries Inc., priority 2010, dated 2015)

Legend:
[1] = Thermogravimetric analysis (TGA) of the dye; type: physicochemical; details: temperature at which 10% of weight is decomposed (TGA)
Protocol: (§1) The diaminopyridine azo-based dyes (A-1) according to Examples 1 to 6 are measured regarding various properties such as solubility, maximum absorption wavelength, thermal decomposition temperature, and the like.
(§2) FIG. 1 is a graph showing the spectrum transmittance graph of the diaminopyridine azo-based dye (A-1), and FIG. 2 is a graph showing thermogravimetric analysis (TGA) results.

[2] = Spectrum transmittance / maximum absorption wavelength of the dye; type: physicochemical
Protocol: as §1, §2

**Q.** With CCCCC(CC)CNCCS(=O)(=O)c1ccc(/N=N/c2c(NCC(CC)CCCC)nc(NCC(CC)CCCC)c(C#N)c2C)cc1 (centres unmarked) [A-1] as the compound, how does the thermal decomposition temperature [1] read?
**A.** Its thermal decomposition temperature is 318 °C.

**Q.** What about the maximum absorption wavelength [2] of the same compound?
**A.** Its maximum absorption wavelength is 470 nm.
